Test results as given in patent US11236055B2 (Venenum Biodesign, LLC, priority 2016, dated 2022).

Experiments:
[1] = molecular target: T1, mouse TGR5 receptor (Mus musculus, UniProt Q80SS6); assay: Mouse TGR5 cAMP production assay (HTRF, Cisbio cAMP HiRange); type: cell-based; details: HEK293-EBNA cells overexpressing mouse TGR5, HTRF cAMP HiRange; coded A-D
T1 construct: expressed in transfected cells; host or cells: HEK293-EBNA (293 c18, ATCC CRL10852), Hygromycin B selection
T1 sequence (Q80SS6 1-329): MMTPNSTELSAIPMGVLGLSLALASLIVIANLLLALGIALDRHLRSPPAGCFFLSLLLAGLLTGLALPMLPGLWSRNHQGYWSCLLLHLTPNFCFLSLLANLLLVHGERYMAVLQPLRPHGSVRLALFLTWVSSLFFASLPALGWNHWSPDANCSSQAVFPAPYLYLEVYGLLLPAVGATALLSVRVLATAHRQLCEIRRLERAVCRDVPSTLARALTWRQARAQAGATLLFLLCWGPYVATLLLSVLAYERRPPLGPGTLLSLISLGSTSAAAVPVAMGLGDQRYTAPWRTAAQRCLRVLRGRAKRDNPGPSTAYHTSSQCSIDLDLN
Outline: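 cAMP read by HTRF competition after 1 h room-temperature compound exposure of mouse TGR5-overexpressing HEK293-EBNA cells. Cells were suspended in serum-free DMEM containing 500 μM IBMX; compounds ran as 12-point half-log dilutions in duplicate; EC50 derived.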

[2] = system: Mouse STC-1 cells; assay: STC-1 GLP-1 assay; type: cell-based; details: GLP-1 secretion, 2 h, coded A-C, read-out: Mouse STC-1 HTRF GLP-1 Activity (EC50)
Outline: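 Cells were seeded two days before in charcoal-stripped FBS medium, then exposed 2 h at 37 °C to compounds (12-point half-log series) in HBSS with protease inhibitors, DPP-IV inhibitor and 0.1% fatty acid free BSA. Active GLP-1 in supernatants measured by HTRF; EC50 derived.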

SMILES	EC50 [1] [nM]	EC50 [2] [nM]
Cc1cnccc1-c1cccc(C(C)(C)N(CCCNC(=O)NCS(=O)(=O)O)S(=O)(=O)c2cccc(Cl)c2C)c1 [Compound 29, (3-(3-((3-Chloro-2-methyl-N-(2-(3-(3-methylpyridin-4-yl)phenyl)propan-2-yl)phenyl)sulfonamide)propyl)ureido) methanesulfonic acid]	100 to 999	100 to 999
Cc1cnccc1-c1cccc([C@H](C)N(CCCCNC(=O)NCS(=O)(=O)O)S(=O)(=O)c2ccccc2C(F)(F)F)c1 [Compound 28AC, (S)-(3-(4-(N-(1-(3-(3-methylpyridin-4-yl)phenyl)ethyl)-2-(trifluoromethyl)phenylsulfonamido)butyl)ureido)methanesulfonic acid]	< 100	1000 to 30000
CCc1cnccc1-c1cccc([C@H](C)N(CCCC(=O)NCCS(=O)(=O)O)S(=O)(=O)c2cccc(Cl)c2C)c1 [Compound 21AQ, (S)-2-(4-(3-chloro-N-(1-(3-(3-ethylpyridin-4-yl)phenyl)ethyl)-2-methylphenylsulfonamido)butanamido)ethanesulfonic acid]	< 100	100 to 999
CCc1cnccc1-c1cccc([C@H](C)N(CCCC(=O)NCCS(=O)(=O)O)S(=O)(=O)c2ccccc2C(F)(F)F)c1 [Compound 20BF, (S)-2-(4-(N-(1-(3-(3-ethylpyridin-4-yl)phenyl)ethyl)-2-(trifluoromethyl)phenylsulfonamido)butanamido)ethanesulfonic acid]	< 100	100 to 999
Cc1cnccc1-c1cccc(C(C)(C)N(CCCC(=O)NCS(=O)(=O)O)S(=O)(=O)c2ccccc2C(F)(F)F)c1 [Compound 20AB]	< 100	100 to 999
Cc1cnccc1-c1cccc([C@H](C)N(CCCCNC(=O)[C@@H](N)CS(=O)(=O)O)S(=O)(=O)c2ccccc2C(F)(F)F)c1 [Compound 31AC, (R)-2-amino-3-((4-(N-((S)-1-(3-(3-methylpyridin-4-yl)phenyl)ethyl)-2-(trifluoromethyl)phenylsulfonamido)butyl)amino)-3-oxopropane-1-sulfonic acid]	< 100	100 to 999
CCc1cnccc1-c1cccc([C@H](C)N(CCCC(=O)NCCS(=O)(=O)NCC(=O)O)S(=O)(=O)c2cccc(Cl)c2C)c1 [Compound 21AT, (S) 2-(3-(4-(3-chloro-2-methyl-N-(1-(3-(3-ethylpyridin-4-yl)phenyl)ethyl)phenylsulfonamido)butanamido)ethylsulfonamido)acetic acid]	< 100	100 to 999
CCc1cnccc1-c1cccc([C@H](C)N(CCCC(=O)NC[C@@H](O)[C@H](O)[C@@H](O)[C@@H](O)CO)S(=O)(=O)c2cccc(Cl)c2C)c1 [Compound 20AN, 4-(3-chloro-N-((S)-1-(3-(3-ethylpyridin-4-yl)phenyl)ethyl)-2-methylphenylsulfonamido)-N-((2R,3S,4S,5S)-2,3,4,5,6-pentahydroxyhexyl)butanamide]	< 100	100 to 999
Cc1cnccc1-c1cccc([C@H](C)N(CCCC(=O)NCCS(=O)(=O)NCCCC(=O)O)S(=O)(=O)c2ccccc2C(F)(F)F)c1 [Compound 20BK]	< 100	1000 to 30000
Cc1cnccc1-c1cccc([C@H](C)N(CCCC(=O)NCCS(=O)(=O)NCC(=O)O)S(=O)(=O)c2cccc(Cl)c2C)c1 [Compound 21AN, (S) 2-(3-(4-(3-chloro-2-methyl-N-(1-(3-(3-methylpyridin-4-yl)phenyl)ethyl)phenylsulfonamido)butanamido)ethylsulfonamido)acetic acid]	< 100	100 to 999
Cc1cnccc1-c1cccc(C(C)(C)N(CCCC(=O)NCCS(=O)(=O)O)S(=O)(=O)c2ccccc2C(F)(F)F)c1 [Compound 20AA, 2-(4-(N-(2-(3-(3-methylpyridin-4-yl)phenyl)propan-2-yl)-2-(trifluoromethyl)phenylsulfonamido)butanamido)ethanesulfonic acid]	< 100	100 to 999
CCc1cnccc1-c1cccc(C(C)(C)NS(=O)(=O)c2ccccc2C(F)(F)F)c1 [Compound 5, N-(2-(3-(3-ethylpyridin-4-yl)phenyl)propan-2-yl)-2-(trifluoromethyl)benzenesulfonamide]	< 100	100 to 999
CCc1cnccc1-c1cccc([C@H](C)N(CCCC(=O)NCCS(=O)(=O)NCC(=O)O)S(=O)(=O)c2ccccc2C(F)(F)F)c1 [Compound 20BG]	< 100	100 to 999
Cc1cnccc1-c1cccc([C@H](C)N(CCCCC(=O)NCCS(=O)(=O)NCC(=O)O)S(=O)(=O)c2ccccc2C(F)(F)F)c1 [Compound 20BL, (S) 2-(4-(N-(1-(3-(3-methylpyridin-4-yl)phenyl)ethyl)-2-(trifluoromethyl)phenylsulfonamidopentanamido)ethylsulfonamido)acetic acid]	< 100	1000 to 30000
Cc1cnccc1-c1cccc([C@H](C)N(CCCCC(=O)NCCS(=O)(=O)O)S(=O)(=O)c2cccc(Cl)c2C)c1 [Compound 20AH, (S)-2-(5-(3-chloro-2-methyl-N-(1-(3-(3-methylpyridin-4-yl)phenyl)ethyl)phenylsulfonamido)pentanamido)ethanesulfonic acid]	< 100	1000 to 30000
CCc1cnccc1-c1cccc([C@H](C)N(CCCC(=O)NCCNS(N)(=O)=O)S(=O)(=O)c2cccc(Cl)c2C)c1 [Compound 37AA, (S)-4-(3-chloro-N-(1-(3-(3-ethylpyridin-4-yl)phenyl)ethyl)-2-methylphenylsulfonamido)-N-(2-(sulfamoylamino)ethyl)butanamide]	< 100	100 to 999
Cc1cnccc1-c1cccc(C(C)(C)N(CCCC(=O)NC[C@@H](O)[C@H](O)[C@@H](O)[C@@H](O)CO)S(=O)(=O)c2cccc(Cl)c2C)c1 [Compound 20AF, 4-(3-chloro-2-methyl-N-(2-(3-(3-methylpyridin-4-yl)phenyl)propan-2-yl)phenylsulfonamido)-N-((2R,3S,4S,5S)-2,3,4,5,6-pentahydroxyhexyl)butanamide]	< 100	100 to 999
Cc1cnccc1-c1cccc([C@H](C)N(CCCC(=O)NCCNS(=O)(=O)NCC(=O)O)S(=O)(=O)c2cccc(Cl)c2C)c1 [Compound 38]	< 100	100 to 999
CCc1cnccc1-c1cccc(C2CN(C(=O)CS(=O)(=O)O)CCN2S(=O)(=O)c2cccc(Cl)c2C)c1 (centres unmarked) [Compound 49, 2-(4-((3-Chloro-2-methylphenyl)sulfonyl)-3-(3-(3-ethylpyridin-4-yl)phenyl)piperazin-1-yl)-2-oxoethanesulfonic acid]	< 100	100 to 999
Cc1cnccc1-c1cccc(C(C)(C)N(CCCC(=O)O)S(=O)(=O)c2ccccc2C(F)(F)F)c1 [Compound 14, 4-(N-(2-(3-(3-methylpyridin-4-yl)phenyl)propan-2-yl)-2-(trifluoromethyl)phenylsulfonamido)butanoic acid]	< 100	100 to 999
Cc1cnccc1-c1cccc([C@H](C)N(CCCCNC(=O)NCCS(=O)(=O)NCC(=O)O)S(=O)(=O)c2ccccc2C(F)(F)F)c1 [Compound 28AA, (S)-2-(3-(4-(N-(1-(3-(3-methylpyridin-4-yl)phenyl)ethyl)-2-(trifluoromethyl)phenylsulfonamido)butyl)ureido)ethanesulfonamido acetic acid]	100 to 999	100 to 999
CCc1cnccc1-c1cccc(C(C)(C)N(CCCC(=O)NCCS(=O)(=O)O)S(=O)(=O)c2cccc(Cl)c2C)c1 [Compound 20AC, 2-(4-(3-chloro-N-(2-(3-(3-ethylpyridin-4-yl)phenyl)propan-2-yl)-2-methylphenylsulfonamido)butanamido)ethanesulfonic acid]	< 100	100 to 999
Cc1cnccc1-c1cccc([C@H](C)N(CCCCNC(=O)CS(=O)(=O)O)S(=O)(=O)c2ccccc2C(F)(F)F)c1 [Compound 31AA, (S)-2-((4-(N-(1-(3-(3-methylpyridin-4-yl)phenyl)ethyl)-2-(trifluoromethyl)phenylsulfonamido)butyl)amino)-2-oxoethanesulfonic acid]	< 100	100 to 999
CCc1cnccc1-c1cccc([C@H](C)N(CCCC(=O)NCCS(=O)(=O)O)S(=O)(=O)c2ccccc2C)c1 [Compound 20AR, (S)-2-(4-(N-(1-(3-(3-ethylpyridin-4-yl)phenyl)ethyl)-2-methylphenyl-sulfonamido)butanamido)ethane sulfonic acid]	< 100	100 to 999
CCc1cnccc1-c1cccc([C@H](C)N(CCCC(=O)NCCS(=O)(=O)NCC(=O)O)S(=O)(=O)c2ccccc2C)c1 [Compound 20BU, (S)-2-(4-(2-methyl-N-(1-(3-(3-ethylpyridin-4-yl)phenyl)ethyl)phenylsulfonamido)butanamidoethylsulfonamido)acetate]	< 100	100 to 999
